Structures are written as SMILES. Active and inactive are the calls of the source.

As usually defined, the EC50 is the midpoint of the concentration-response curve. In general, IC50 refers to the midpoint of a concentration-inhibition curve. Usually CC50 stands for the concentration that lowers cell viability or growth by half. The AC50 is the concentration giving half of the maximal activity seen.

Test [1] can be described thus: Luminescence Cell-Based Dose Confirmation HTS to Identify Inhibitors of Polyadenylation. The format is functional.
Test [2] addresses T1, Aryl hydrocarbon receptor (Homo sapiens, UniProt P35869).
T1 sequence (P35869 whole entry): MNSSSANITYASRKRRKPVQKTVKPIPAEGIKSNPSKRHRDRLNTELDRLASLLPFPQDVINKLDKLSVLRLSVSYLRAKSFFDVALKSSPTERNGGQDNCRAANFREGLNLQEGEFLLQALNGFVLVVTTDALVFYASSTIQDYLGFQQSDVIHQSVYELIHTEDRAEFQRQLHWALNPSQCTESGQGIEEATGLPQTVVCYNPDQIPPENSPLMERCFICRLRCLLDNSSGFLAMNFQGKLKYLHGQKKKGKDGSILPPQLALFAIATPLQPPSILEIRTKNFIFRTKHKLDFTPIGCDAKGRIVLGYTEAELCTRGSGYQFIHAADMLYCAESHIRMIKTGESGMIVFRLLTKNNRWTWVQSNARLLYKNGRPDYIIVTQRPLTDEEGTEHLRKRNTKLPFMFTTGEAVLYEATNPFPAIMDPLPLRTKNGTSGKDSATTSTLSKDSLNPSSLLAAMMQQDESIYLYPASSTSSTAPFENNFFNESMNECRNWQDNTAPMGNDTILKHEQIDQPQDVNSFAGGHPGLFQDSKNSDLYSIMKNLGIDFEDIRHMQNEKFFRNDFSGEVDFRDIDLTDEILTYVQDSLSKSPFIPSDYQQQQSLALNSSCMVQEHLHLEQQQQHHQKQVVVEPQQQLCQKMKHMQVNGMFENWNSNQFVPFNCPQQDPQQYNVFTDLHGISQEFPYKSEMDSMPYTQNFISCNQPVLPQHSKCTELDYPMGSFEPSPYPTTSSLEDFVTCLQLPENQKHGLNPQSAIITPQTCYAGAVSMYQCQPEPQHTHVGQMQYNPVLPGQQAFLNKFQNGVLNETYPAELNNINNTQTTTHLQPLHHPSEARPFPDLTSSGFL
Description: Luminescence-based cell-based high throughput dose response assay for activators of the Aryl Hydrocarbon Receptor (AHR). [Related pubchem assays: 2796 (Primary screen (AHR activators in singlicate)), 2845 (Confirmation screen (AHR activators in triplicate)), 434939 (Counterscreen (PXR activators in triplicate)), 2804 (Summary (AHR activators))]. Format: ADME. (The purpose of a counterscreen is to sort out artefacts and off-target activity.)

Test [3] addresses Mitogen-activated protein kinase 10 (Homo sapiens, UniProt P53779). The experiment in a line: Dose response biochemical screening assay for inhibitors of c-Jun N-Terminal Kinase 3 (JNK3). [Related pubchem assays: 746 ].
The target in test [4] is T2, Estrogen receptor beta (Homo sapiens, UniProt Q92731). The experiment in a line: blockers of SRC-3 recruitment to ERβ – biochemical, ELISA, streptavidin-HRP readout, orthogonal assay, confirmation (AID 1060). In general terms: In an ELISA, binding on a coated surface is turned into a signal by an enzyme label.
In test [5] the target is T2, Estrogen receptor beta.
The test system of the next test is Vero. Description: cells. The format is functional. Particulars: Chlorocebus sabaeus.
Test [6] addresses E3 ubiquitin-protein ligase Mdm2 (Homo sapiens, UniProt Q00987). The experiment in a line: MDM2-luc reporter signal enhancers, multi-concentration potency testing, MDM2 ubiquitin-protein ligase inhibitor program, whole-cell format, luminescence detection, 384-well microplate (AID 1394).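 Note: MDM2 E3 inhibitors raise luminescence so EC50 is for signal enhancement.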 Format: functional.
Test [7] in a line: Luminescent dose response cell-based high throughput screening assay for inhibitors of the Janus kinase 2 mutant JAK2V617F. [Related pubchem assays: 1446 (Primary screen.), 1521 (Confirmation assay.), 1486 (Counter screen.)]. The format is functional.
The nature of test [8]: Fluorescence-based cell-based high throughput dose response assay for inhibitors of the interaction of nucleotide-binding oligomerization domain containing 2 (NOD2) and the receptor-interacting serine-threonine kinase 2 (RIPK2). To be noted: Homo sapiens. Format: functional.
Test [9] in a line: Luminescence Cell-Based Dose Retest to Confirm Inhibitors of Cancer Stem Cells. [Related pubchem assays (depositor defined):AID2717, AID2721]. Particulars: Homo sapiens. The format is functional.
In another test the target is Ion channel NompC (Danio rerio, UniProt Q7T1G6). The experiment in a line: Fluorescence counterscreen assay for TRPML3 agonists: dose response cell-based high-throughput screening assay to identify agonists of the transient receptor potential channel N1 (TRPN1). [Related pubchem assays: 1526, 1424, 1448 ]. The format is functional.
The target of another test is T3, Mucolipin-3 (Homo sapiens, UniProt Q8TDD5).
T3 sequence (Q8TDD5 whole entry): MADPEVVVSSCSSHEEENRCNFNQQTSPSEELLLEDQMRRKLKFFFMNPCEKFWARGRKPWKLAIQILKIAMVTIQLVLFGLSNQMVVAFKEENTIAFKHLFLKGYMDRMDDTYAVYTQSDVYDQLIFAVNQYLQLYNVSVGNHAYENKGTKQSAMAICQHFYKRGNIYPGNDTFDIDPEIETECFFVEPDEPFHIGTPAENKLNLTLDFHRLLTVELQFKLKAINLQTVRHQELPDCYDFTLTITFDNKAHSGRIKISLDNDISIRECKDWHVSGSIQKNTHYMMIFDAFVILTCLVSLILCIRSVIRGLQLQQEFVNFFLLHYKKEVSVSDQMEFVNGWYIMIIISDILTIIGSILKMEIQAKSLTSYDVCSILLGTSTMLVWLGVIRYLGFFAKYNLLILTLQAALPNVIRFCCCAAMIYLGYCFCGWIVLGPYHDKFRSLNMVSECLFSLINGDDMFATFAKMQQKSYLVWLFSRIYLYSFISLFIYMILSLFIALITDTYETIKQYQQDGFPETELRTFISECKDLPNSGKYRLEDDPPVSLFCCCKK
The experiment in a line: Dose response cell-based high-throughput screening assay for agonists of the transient receptor potential channel ML3 (TRPML3). [Related pubchem assays: 1526, 1424, 1448 ]. The format is functional.

Test [10] is described as follows: luciferase reporter signal suppression in cells – H4 neuroglioma cells, luminescence, dose response (AID 1990). Format: functional, cell-based. For orientation: In a reporter assay the amount or activity of a reporter protein is the signal.
Test [11] in a line: Luminescence-based dose response cell-based high throughput screening assay for cytotoxic compounds using the IEC-6 intestinal epithelial cell line. [Related pubchem assays: 1858 (Summary AID.), 1825 (Counterscreen.), 1907 (Confirmation screen.)]. The format is functional.
Test [12] can be described thus: DRD fibroblast viability loss – cell-based, non-viral oncogenic, luminescence, dose response (AID 1934). The format is functional. To be noted: Homo sapiens.
Test [13] can be described thus: Luminescence Cell-Based Dose Response HTS to Identify Inhibitors of 5'UTR Stem-Loop Driven Prion Protein mRNA Translation in H4 Neuroglioblastoma Cells. [Related pubchem assays: 1827 (Project Summary), 1813 (Primary HTS)]. Format: functional.
A short description of test [14]: NIH3T3 cell viability loss – ATP luminescence, mouse fibroblasts, counter-screen, dose response (AID 2010).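 Note: cells exposed to compound for about 90 hours before reading.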 Format: functional, cell-based.
Test [15] concerns BJ. The experiment in a line: BJ-TERT fibroblast viability loss – cell-based, RAS-independent, luminescence, dose response (AID 1933). The format is functional. To be noted: Homo sapiens.
Test [16] concerns BJ. The experiment in a line: cells. The format is functional, cell-based. Particulars: Homo sapiens.
Test [17] deals with BJ. The experiment in a line: BJ-TERT-LT-ST fibroblast viability loss – cell-based, RAS-independent, luminescence, dose response (AID 1935).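 Note: BJ fibroblasts immortalized with TERT plus LT and ST oncogenes.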 The format is functional. To be noted: Homo sapiens.
The nature of test [18]: alpha-synuclein stem-loop luciferase translation blockers – H4 neuroglioma cells, luminescence, confirmation (AID 1988). The format is functional, cell-based.
Test [19] in a line: Trypanosoma cruzi growth suppression in host cells – NIH3T3 host cells, beta-gal luminescence, confirmation (AID 2044).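 Note: intracellular parasites grown in NIH/3T3 mouse fibroblasts as host cells; luminescent beta-galactosidase reporter signal from transgenic T. cruzi replicating inside host cells; inhibitors lower the luminescence signal.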 The format is functional, cell-based.
Test [20] addresses Heat shock protein HSP 90-alpha (Homo sapiens, UniProt P07900). The experiment in a line: Luminescence-based dose response biochemical high throughput screening assay for inhibitors of the Heat Shock Protein 90 (HSP90). [Related pubchem assays: 1831 (Summary AID.), 1846 (Confirmation screen.), 1789 (Primary screen.)].
Test [21] is described as follows: fluconazole-exposed Candida albicans growth modulators – fluorescence, retest, confirmation (AID 2467). The format is functional, cell-based.
Test [22] can be described thus: Luminescence Cell-Based Dose Confirmation HTS to Identify Inhibitors of Platelet Dense Granule Release. [Related pubchem assays: 1663 (Primary HTS), 1678 (Summary of Project)]. Format: functional.
Test [23] is described as follows: NIH-3T3 fibroblast cytotoxicity, dose response, cytotoxicity control, cell-based, fluorescence, Alamar Blue, secondary assay (AID 2327).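 Note: NIH-3T3 mouse fibroblasts cultured with fluconazole at 8 µg/mL.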 The format is functional.
For a further test, the system named is INS1. Description: INS-1E survival protection against cytokine death – cell-based, luminescence, retest, dose response (AID 449756).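 Note: cell death triggered by IL-1 beta plus TNF-alpha plus IFN-gamma mixture; protective hits raise ATP signal compared with cytokine alone wells.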 The format is functional. Particulars: Rattus norvegicus.
Test [24] has as its target Luciferin 4-monooxygenase (Photinus pyralis, UniProt P08659). The experiment in a line: inhibition of purified Photinus pyralis luciferase – biochemical, luminescence, dose response (AID 1891).
In test [25] the target is Peroxisome proliferator-activated receptor gamma/Nuclear receptor coactivator 1 (Homo sapiens, UniProt P37231). Format: functional.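 Note: agonist potency as compounds enhance coactivator SRC-1 recruitment to PPARgamma.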
Test [26] concerns the target Peroxisome proliferator-activated receptor gamma/Nuclear receptor coactivator 2 (Homo sapiens, UniProt P37231). Format: functional.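 Note: agonist potency for raising coactivator recruitment to the receptor.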
The target of test [27] is Peroxisome proliferator-activated receptor gamma/Nuclear receptor coactivator 3 (Homo sapiens, UniProt P37231). The format is functional.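 Note: agonist potency for raising coactivator recruitment to the receptor.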
Test [28] is described as follows: Luminescence Cell-Based Dose Response HTS to Identify Activators of Luciferase Translation or Activity in H4 […] Cells. [Related pubchem assays: 1829 (Project Summary), 1814 (Primary HTS)]. The format is functional.
The nature of test [29]: HEK-293T viability loss after treatment – luminescence, T-cell screen hits, cytotoxicity control for TCR NF-kB inhibitor project, dose response (AID 489026).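 Note: cells exposed to compound about 14 hours before the viability readout.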 Format: functional, cell-based.
Another test deals with H4. The experiment in a line: Luminescence Cell-Based Dose Response HTS to Identify Activators of 5'UTR Stem-Loop Driven Prion Protein mRNA Translation in H4 Neuroglioblastoma Cells. [Related pubchem assays: 1829 (Project Summary), 1814 (Primary HTS)]. Format: functional. To be noted: Homo sapiens.
Test [30] in a line: Luminescence Cell-Based Dose Confirmation HTS to Identify Activators of 5'UTR Stem-Loop Driven Alpha-Synuclein mRNA Translation in H4 Neuroglioblastoma Cells. [Related pubchem assays: 1829 (Project Summary), 1814 (Primary HTS)]. Format: functional.

Chain of E3 ubiquitin-protein ligase Mdm2 (Q00987 whole entry): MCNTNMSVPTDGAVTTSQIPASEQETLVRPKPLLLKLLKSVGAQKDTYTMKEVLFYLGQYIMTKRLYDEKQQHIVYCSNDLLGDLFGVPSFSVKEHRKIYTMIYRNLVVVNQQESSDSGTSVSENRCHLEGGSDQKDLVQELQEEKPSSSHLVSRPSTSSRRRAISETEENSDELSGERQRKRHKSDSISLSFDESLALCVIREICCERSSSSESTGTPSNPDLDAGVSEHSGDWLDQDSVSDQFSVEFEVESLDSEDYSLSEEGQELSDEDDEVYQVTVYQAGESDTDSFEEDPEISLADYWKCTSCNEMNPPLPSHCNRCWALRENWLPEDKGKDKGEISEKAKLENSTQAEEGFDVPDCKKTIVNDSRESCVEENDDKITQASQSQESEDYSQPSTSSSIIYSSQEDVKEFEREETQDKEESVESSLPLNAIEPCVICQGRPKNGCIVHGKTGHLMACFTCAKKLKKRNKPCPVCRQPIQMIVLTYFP
Chain of Mitogen-activated protein kinase 10 (P53779 whole entry): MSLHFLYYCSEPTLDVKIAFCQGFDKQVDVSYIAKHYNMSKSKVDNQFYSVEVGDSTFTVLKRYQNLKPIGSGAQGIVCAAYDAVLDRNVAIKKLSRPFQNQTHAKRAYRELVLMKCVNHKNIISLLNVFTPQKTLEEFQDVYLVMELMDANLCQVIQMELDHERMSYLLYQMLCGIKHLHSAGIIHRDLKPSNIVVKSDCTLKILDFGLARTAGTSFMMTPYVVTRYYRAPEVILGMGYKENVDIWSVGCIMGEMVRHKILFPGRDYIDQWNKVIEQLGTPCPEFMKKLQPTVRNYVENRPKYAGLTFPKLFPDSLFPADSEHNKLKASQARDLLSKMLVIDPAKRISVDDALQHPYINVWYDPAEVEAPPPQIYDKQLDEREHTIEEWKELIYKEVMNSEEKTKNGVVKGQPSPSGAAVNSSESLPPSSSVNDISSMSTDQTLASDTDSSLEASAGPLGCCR
T2 sequence (Q92731 whole entry): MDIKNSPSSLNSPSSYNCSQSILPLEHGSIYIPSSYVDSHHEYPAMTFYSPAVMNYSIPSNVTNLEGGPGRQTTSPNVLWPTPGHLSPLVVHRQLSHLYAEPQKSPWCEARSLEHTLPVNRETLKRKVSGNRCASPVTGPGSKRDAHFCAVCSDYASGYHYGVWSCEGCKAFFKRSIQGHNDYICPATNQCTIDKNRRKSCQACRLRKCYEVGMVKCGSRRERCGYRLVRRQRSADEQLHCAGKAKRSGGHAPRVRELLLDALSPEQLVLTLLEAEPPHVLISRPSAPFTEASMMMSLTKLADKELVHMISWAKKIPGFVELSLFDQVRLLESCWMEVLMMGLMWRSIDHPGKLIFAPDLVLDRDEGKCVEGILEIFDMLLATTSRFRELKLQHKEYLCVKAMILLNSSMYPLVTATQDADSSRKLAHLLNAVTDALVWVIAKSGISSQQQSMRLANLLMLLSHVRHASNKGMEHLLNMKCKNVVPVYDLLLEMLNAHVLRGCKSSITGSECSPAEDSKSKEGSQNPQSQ
Chain of Luciferin 4-monooxygenase (P08659 whole entry): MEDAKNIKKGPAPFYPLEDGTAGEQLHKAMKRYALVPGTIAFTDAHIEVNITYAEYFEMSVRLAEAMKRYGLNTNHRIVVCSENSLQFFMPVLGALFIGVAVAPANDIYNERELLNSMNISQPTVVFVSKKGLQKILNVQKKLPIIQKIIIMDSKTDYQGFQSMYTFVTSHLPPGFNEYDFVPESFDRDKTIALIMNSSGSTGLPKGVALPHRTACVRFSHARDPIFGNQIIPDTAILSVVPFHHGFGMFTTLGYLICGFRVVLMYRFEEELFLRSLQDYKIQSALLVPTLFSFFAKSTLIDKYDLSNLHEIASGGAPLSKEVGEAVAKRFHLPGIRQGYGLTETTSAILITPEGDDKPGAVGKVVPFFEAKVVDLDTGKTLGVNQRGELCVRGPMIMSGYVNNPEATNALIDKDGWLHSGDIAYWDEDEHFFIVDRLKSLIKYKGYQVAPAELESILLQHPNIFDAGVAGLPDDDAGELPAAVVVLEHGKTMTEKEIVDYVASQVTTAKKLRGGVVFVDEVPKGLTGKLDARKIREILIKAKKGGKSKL
Chain of Peroxisome proliferator-activated receptor gamma/Nuclear receptor coactivator 1 (P37231 whole entry): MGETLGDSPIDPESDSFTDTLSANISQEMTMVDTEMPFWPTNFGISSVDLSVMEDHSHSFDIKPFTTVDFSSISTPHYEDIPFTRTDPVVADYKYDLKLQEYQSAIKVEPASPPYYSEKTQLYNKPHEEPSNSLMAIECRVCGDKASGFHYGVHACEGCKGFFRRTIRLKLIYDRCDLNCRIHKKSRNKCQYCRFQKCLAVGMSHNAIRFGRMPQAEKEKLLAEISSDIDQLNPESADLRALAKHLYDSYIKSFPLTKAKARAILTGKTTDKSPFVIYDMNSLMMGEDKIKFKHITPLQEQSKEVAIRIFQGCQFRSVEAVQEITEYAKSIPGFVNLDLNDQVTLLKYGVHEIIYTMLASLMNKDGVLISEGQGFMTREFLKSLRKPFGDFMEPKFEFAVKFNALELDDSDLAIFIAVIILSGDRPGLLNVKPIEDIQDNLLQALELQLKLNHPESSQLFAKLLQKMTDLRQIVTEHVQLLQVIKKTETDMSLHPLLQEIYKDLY
Chain of Peroxisome proliferator-activated receptor gamma/Nuclear receptor coactivator 1 (Q15788 whole entry, further chain): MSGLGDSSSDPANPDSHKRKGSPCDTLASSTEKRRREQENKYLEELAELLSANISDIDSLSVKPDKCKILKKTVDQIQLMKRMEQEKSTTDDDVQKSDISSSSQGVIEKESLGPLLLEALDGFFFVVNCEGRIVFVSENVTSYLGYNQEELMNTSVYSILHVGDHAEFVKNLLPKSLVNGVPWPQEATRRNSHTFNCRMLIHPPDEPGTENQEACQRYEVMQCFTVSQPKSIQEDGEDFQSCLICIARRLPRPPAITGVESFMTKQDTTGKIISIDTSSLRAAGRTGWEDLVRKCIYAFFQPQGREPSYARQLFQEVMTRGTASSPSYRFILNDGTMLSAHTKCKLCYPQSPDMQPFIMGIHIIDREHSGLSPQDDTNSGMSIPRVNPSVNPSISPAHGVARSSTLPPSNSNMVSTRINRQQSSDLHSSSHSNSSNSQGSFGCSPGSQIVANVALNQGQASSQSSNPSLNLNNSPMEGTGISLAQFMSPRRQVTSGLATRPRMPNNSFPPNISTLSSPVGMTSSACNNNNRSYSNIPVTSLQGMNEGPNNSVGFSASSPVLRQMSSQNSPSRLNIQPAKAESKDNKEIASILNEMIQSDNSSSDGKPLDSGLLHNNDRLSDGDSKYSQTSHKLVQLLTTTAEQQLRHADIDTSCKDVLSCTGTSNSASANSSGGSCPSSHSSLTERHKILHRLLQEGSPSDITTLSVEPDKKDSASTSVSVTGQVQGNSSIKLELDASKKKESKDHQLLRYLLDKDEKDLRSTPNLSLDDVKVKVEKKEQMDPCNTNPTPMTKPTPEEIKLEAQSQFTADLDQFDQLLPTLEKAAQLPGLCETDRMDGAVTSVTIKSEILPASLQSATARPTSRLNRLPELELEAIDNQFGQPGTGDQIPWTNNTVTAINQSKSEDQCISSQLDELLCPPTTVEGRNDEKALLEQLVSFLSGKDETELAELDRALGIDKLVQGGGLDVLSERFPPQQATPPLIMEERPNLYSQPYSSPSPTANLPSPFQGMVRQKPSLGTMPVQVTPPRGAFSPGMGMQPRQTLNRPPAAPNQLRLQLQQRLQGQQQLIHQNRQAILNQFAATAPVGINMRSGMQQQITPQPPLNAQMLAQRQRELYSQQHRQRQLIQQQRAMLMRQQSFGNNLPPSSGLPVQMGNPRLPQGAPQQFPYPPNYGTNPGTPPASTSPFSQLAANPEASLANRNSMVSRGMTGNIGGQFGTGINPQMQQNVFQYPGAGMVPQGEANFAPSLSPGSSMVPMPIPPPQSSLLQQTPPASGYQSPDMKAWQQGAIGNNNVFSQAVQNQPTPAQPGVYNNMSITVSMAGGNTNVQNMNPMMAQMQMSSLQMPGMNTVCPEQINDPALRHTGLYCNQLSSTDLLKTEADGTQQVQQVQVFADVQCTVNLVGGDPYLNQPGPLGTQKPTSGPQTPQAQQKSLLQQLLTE

In the case of `CC(NC(=O)CCCCCCN1C(=O)c2ccccc2C1=O)c1ccc2c(c1)CCCC2` (configuration not stated), in test [1], the EC50 is recorded as > 120 µM (not active).
In the case of `Cc1nc(Cl)sc1C(=O)Nc1ccc(C(F)(F)F)cc1`, the EC50 in test [2] was 1.57 µM (active).
`O=c1[nH]c2ccccc2c2nc3ccccn3c12`: the IC50 in test [3] is 13.8 µM (not active).
On to `Cc1ccc(NC(=O)COc2ccc(-n3cnnn3)cc2)cc1C`, for which the IC50 was < 0.023 µM (not active) against Estrogen receptor beta [4] and > 50 µM (not active) against Estrogen receptor beta [5].
Consider `CN(C)c1n/c(=N/Cc2ccco2)ss1`, for which, in the test on Vero, the CC50 is 23.8 µM (active). Moreover, in test [6], the EC50 is 0.26 µM (active).
Consider `O=C(N/N=C/c1ccsc1)c1cc2ccccc2o1`, for which the EC50 in test [1] is reported as > 120 µM (not active).
In the case of `O=S(=O)(c1cnc(Cl)c(Br)c1)N1CCc2ccccc21`, the IC50 in [7] was 4.22 µM (active); in test [8], 6.35 µM (active). Besides, the AC50 in [9] was 12.1 µM (inconclusive). In addition, the EC50 at Ion channel NompC is > 29.9 µM (not active); at Mucolipin-3 it was 7.71 µM (active).
Regarding `Cc1ccc(-n2ncc(C(=O)Nc3cc(Cl)cc(Cl)c3)c2C2CCNCC2)cc1C`, the EC50 in test [10] was > 120 µM (not active); in [12] it was 5.28 µM (active); in test [13], 9.16 µM (active); in test [14], > 30 µM (not active); in the test with BJ [15] it was 3.72 µM (active); in the test on BJ [16] it was 8.6 µM (inconclusive). The EC50 with BJ [17] was 6.96 µM (inconclusive); in test [18], 7.75 µM (active); in test [19], 2.02 µM (active). Further, the IC50 in [11] is 5.23 µM (active).
Take `CCCCOc1ccc(-c2cc(C(=O)NN=C(S)NCC)c3ccccc3n2)cc1`: the concentration for half-maximal inhibition (IC50) in test [20] is 2.45 µM (active). Moreover, the EC50 in test [21] is 1.8 µM (active); in test [22], < 0.701 µM (active); in test [23] it was 16.1 µM (inconclusive); in test [24], 0.516 µM (active). Besides, in the test with INS1, the half-maximal activity concentration (AC50) is 3.2 µM (active).
For the molecule `COCCNc1nc2nonc2nc1N(C)Cc1cccc2cnccc12`, the concentration giving a half-maximal response (EC50) in [6] is 0.22 µM (not active).
As to `CCOc1ccc(/C=N/n2cc(-c3ccccc3)nc2S)cc1`, the EC50 in [2] is 4.76 µM (active); in test [25] it was > 79.4 µM (not active); in test [26] it was > 79.4 µM (not active); in test [27], > 79.4 µM (not active); in test [14], > 60 µM (not active); in test [19] it was 2.35 µM (active).
Turning to `O=C1C=CCC(/C=C/c2ccccc2)O1` (configuration not stated), the EC50 is > 120 µM (not active) in [28], 98.3 µM (active) in the test with H4 and > 120 µM (not active) in test [30]. Besides, the figures for the IC50 in test [29] and in test [7] were > 80 µM (inactive) and 1.31 µM (active), respectively.
Consider `CCOc1cc(C2NC(=O)NC(C)=C2C(=O)OCc2ccccc2)ccc1O` (configuration not stated), for which the IC50 in [3] is 34.6 µM (not active).

For the origin of these results see ChEMBL document CHEMBL1201862, “PubChem BioAssay data set” (2004).
